In patent US20080207617A1, “Quinoline Derivatives and Quinazoline Derivatives Inhibiting Autophosphrylation of Flt3 and Medicinal Compositions Containing the Same” (KIRIN BEER KABUSHIKI KAISHA, priority 2002, published 2008):
Counter-ions that a name gives are not always drawn. Like-named read-outs stand apart in the source and are kept apart here.

Tests used:
FLT3 = molecular target: T1, FLT3 (Homo sapiens, UniProt P36888); assay: Inhibitory activity against FLT3 autophosphorylation using ELISA method; assay type: cell-based; details: MV4-11 cells, 1 hr with compound, read-out: IC50 of FLT3-phosphorylation
T1 sequence (P36888 with tags, fused parts or gaps INS600HVDFREYEYD): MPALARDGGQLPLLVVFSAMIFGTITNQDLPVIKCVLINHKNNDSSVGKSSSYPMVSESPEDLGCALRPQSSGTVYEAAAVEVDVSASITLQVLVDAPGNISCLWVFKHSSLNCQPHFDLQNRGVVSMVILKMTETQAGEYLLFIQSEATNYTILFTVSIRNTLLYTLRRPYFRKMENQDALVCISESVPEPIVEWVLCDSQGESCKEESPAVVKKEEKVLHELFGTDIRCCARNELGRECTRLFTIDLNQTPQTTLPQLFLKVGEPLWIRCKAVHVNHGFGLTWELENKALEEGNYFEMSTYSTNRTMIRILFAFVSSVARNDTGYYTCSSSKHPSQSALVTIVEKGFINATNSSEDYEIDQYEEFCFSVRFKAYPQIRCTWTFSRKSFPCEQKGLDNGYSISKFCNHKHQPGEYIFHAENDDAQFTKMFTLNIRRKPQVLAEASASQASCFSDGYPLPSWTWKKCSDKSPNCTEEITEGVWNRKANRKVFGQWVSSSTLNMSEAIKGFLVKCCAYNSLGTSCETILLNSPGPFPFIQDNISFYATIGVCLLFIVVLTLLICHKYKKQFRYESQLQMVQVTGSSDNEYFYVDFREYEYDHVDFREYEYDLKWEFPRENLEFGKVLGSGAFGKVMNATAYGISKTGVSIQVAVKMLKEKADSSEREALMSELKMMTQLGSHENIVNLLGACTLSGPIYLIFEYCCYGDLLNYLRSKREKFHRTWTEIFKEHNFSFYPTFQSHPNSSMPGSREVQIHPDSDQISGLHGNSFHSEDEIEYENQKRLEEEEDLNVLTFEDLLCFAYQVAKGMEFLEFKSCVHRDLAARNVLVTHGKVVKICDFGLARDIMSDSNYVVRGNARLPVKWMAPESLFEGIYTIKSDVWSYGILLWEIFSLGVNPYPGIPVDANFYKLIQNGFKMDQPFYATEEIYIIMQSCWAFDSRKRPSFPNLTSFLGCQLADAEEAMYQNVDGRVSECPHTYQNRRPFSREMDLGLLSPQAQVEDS
Procedure: Pharmacological Test Example 1
Measurement of Inhibitory Activity Against FLT3 Autophosphorylation Using ELISA Method
Human leukemia cells MV4-11 (ATCC number: CRL-9591) were cultured in an IMDM medium containing 10% fetal calf serum (purchased from SIGMA) within a 5% carbon dioxide incubator until 50 to 90% confluent. The harvested cells were seeded into 96-wells, plates, containing an IMDM medium containing 0.1% fetal calf serum, in a 96-well multiscreen plate in an amount of 5.0×10^5 per well, a solution of the test compound in dimethyl sulfoxide was added to each well, and the cultivation was continued at 37° C. for one hr. The medium was removed, followed by washing with phosphate buffered saline. A lysis buffer (60 μl) (20 mM HEPES (pH 7.4), 150 mM NaCl, 0.2% Triton X-100, 10% glycerol, 5 mM sodium orthovanadylate, 5 mM disodium ethylenediaminetetraacetate, and 2 mM Na4P2O7) was then added thereto. The mixture was shaken at 4° C. for 2 hr to prepare a cell extracts.
Separately, phosphate buffered saline (50 μl, pH 7.4) containing 5 μg/ml of anti-phospho-tyrosine antibody (PY20; purchased from Transduction Laboratories) was added to a 96-well microplate for ELISA (Maxisorp; purchased from NUNC), followed by standing at 4° C. overnight to form a solid phase on the wells. After washing of the plate, 250 μl of a blocking solution was added, followed by standing at room temperature for 3 hr to perform blocking. After washing, the whole quantity of the cell extract was transferred to the wells, and the plate was then allowed to stand at 4° C. overnight. After washing, an anti-FLT3 antibody (Flt3/Flk2 (C-20), purchased from Santa Cruz Biotechnology) was allowed to react at room temperature for 2 hr, and, after washing, a peroxidase-labeled anti-rabbit Ig antibody (purchased from Amersham) was allowed to react at room temperature for one hr. After washing, a chromophoric substrate for peroxidase (purchased from Sumitomo Bakelite Co., Ltd.) was added thereto to initiate a reaction. After a suitable level of color development, a reaction termination solution was added to stop the reaction, and the absorbance at 450 nm was measured with a microplate reader. The FLT3-phosphorylation activity for each well was determined by presuming the absorbance without the addition of the medicament to be 100% FLT3-phosphorylation activity and the absorbance with the addition of a large excess of a positive control (Compound 1, 10 μM) to be 0% FLT3-phosphorylation activity. The concentration of the test compound was varied on several levels, the FLT3-phosphorylation inhibitory activity was determined for each case, and the concentration of the test compound necessary for inhibiting 50% of FLT3-phosphorylation (IC50) was calculated.

MV4-11 = assay: Cell growth inhibitory test MV4-11 (WST-1); assay type: cell-based, human; details: MV4-11 cells, 3 days culture
How it was run: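 MV4-11 leukemia cells (3×10^3/well, DMEM + 10% FCS) were cultured 3 days with compound in DMSO at 5% CO2. Growth read by WST-1 absorbance at 450 nm (ref 650 nm), normalized to untreated (100%) and cell-free (0%) wells; IC50 from multiple concentrations.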

MOLM13 = assay: Tumor growth inhibitory activities in nude mice xenograft model inoculated with human leukemia cells MOLM13; assay type: in vivo; details: Mus musculus, MOLM-13, po, read-out: TGIR (%) (measurement date); for inhibition in vivo at 50 mg/kg: 50 mg/kg orally once a day
Procedure: Pharmacological Test Example 5
Tumor Growth Inhibitory Activities in Nude Mice Xenograft Model Inoculated with Human Leukemia Cells
Human leukemia cells MOLM13 (subdivided from Hayashibara Biochemical Laboratories, Inc.) were subcutaneously transplanted into nude mice. […] The test compound suspended or dissolved in 0.5% methylcellulose was orally administered at a dose of 0.1 ml per 10 g body weight once a day for 9 days. For the control group, only vehicle was administered.
The tumor growth inhibition rate (TGIR) was calculated as follows:
The tumor growth inhibition rate (TGIR)=(1−TX/CX)×100
wherein CX represents the volume of tumor at day X for the control group when the tumor volume at the day of the start of the administration (day 1) was presumed to be 1; and TX represents the volume of tumor at day X for test compound administration groups.

| SMILES | IC50 (FLT3) [nM] | IC50 (MV4-11; Homo sapiens, MV4-11, 72 h) [nM] | inhibition in vivo at 50 mg/kg (MOLM13; 240 h, day 10) [%] | IC50 (MV4-11; hydrochloride) [nM] | inhibition in vivo at 12.5 mg/kg (MOLM13; 216 h, 12.5 mg/kg orally once a day, day 9) [%] | inhibition in vivo at 25 mg/kg (MOLM13; 216 h, 25 mg/kg orally once a day, day 9) [%] | inhibition in vivo at 50 mg/kg (MOLM13; 264 h, day 11) [%] |
| --- | --- | --- | --- | --- | --- | --- | --- |
| COc1cc2nccc(Oc3ccc(NC(=O)NCCC(C)(C)C)cc3F)c2cc1OC [Compound 10, 1-[4-(6,7-Dimethoxy-quinolin-4-yloxy)-3-fluoro-phenyl]-3-(3,3-dimethyl-butyl)-urea hydrochloride] | < 1 | < 1 | 84.8 | – | – | – | – |
| COc1cc2c(Oc3ccc(NC(=O)NCCC(C)(C)C)c(F)c3)ccnc2cc1OCCN1CCOCC1 [Compound 41, 1-(3,3-Dimethyl-butyl)-3-{2-fluoro-4-[6-methoxy-7-(2-morpholin-4-yl-ethoxy)-quinolin-4-yloxy]-phenyl}-urea hydrochloride] | 308 | – | – | 25 | – | – | – |
| COc1cc2c(Oc3ccc(NC(=O)NCCC(C)(C)C)c(F)c3)ccnc2cc1OCCN1CCCCC1 [Compound 43, 1-(3,3-Dimethyl-butyl)-3-{2-fluoro-4-[6-methoxy-7-(2-piperidin-1-yl-ethoxy)-quinolin-4-yloxy]-phenyl}-urea hydrochloride] | 216 | 12 | 98.1 | – | – | – | – |
| COc1cc2nccc(Oc3ccc(NC(=O)NCCC(C)(C)C)cc3Cl)c2cc1OC [Compound 8, 1-[3-Chloro-4-(6,7-dimethoxy-quinolin-4-yloxy)-phenyl]-3-(3,3-dimethyl-butyl)-urea] | < 1 | 1 | – | – | – | – | – |
| COc1cc2c(Oc3ccc(NC(=O)NCCC(C)(C)C)cc3F)ccnc2cc1OCCN1CCCCC1 [Compound 44, 1-(3,3-Dimethyl-butyl)-3-{3-fluoro-4-[6-methoxy-7-(2-piperidin-1-yl-ethoxy)-quinolin-4-yloxy]-phenyl}-urea] | 200 | 2 | – | – | 99.6 | 99.8 | – |
| COc1cc2nccc(Oc3ccc(NC(=O)NCCC(C)(C)C)cc3)c2cc1OC [Compound 1, 1-[4-(6,7-Dimethoxy-quinolin-4-yloxy)-phenyl]-3-(3,3-dimethyl-butyl)-urea hydrochloride] | 2 | < 1 | – | – | – | – | 53.8 |
| COc1cc2nccc(Oc3c(Cl)cc(NC(=O)NCCC(C)(C)C)cc3Cl)c2cc1OC [Compound 6, 1-[3,5-Dichloro-4-(6,7-dimethoxy-quinolin--4-yloxy)-phenyl]-3-(3,3-dimethyl-butyl)-urea] | 109 | 8 | – | – | – | – | – |
